Measured values published in patent US20230391739A1, “ARYL DERIVATIVES FOR TREATING TRPM3 MEDIATED DISORDERS” (Katholieke Universiteit Leuven, priority 2020, published 2023).

These compounds were tested against T1, mouse TRPM3α2 (mTRPM3) ion channel (Mus musculus, UniProt J9SQF3) (assay: TRPM3 ion channel driven Ca2+ uptake, Fluo-4 AM assay, PS-stimulated (mTRPM3)). Conditions: TRPM3 overexpressing flip-in HEK293 cells stimulated with Pregnenolone sulfate (PS) 50 μM, activity ranges A, B, C.
T1 construct: expressed in transfected cells; host or cells: flip-in HEK293
T1 sequence (J9SQF3 1-1709 isoform J9SQF3-12): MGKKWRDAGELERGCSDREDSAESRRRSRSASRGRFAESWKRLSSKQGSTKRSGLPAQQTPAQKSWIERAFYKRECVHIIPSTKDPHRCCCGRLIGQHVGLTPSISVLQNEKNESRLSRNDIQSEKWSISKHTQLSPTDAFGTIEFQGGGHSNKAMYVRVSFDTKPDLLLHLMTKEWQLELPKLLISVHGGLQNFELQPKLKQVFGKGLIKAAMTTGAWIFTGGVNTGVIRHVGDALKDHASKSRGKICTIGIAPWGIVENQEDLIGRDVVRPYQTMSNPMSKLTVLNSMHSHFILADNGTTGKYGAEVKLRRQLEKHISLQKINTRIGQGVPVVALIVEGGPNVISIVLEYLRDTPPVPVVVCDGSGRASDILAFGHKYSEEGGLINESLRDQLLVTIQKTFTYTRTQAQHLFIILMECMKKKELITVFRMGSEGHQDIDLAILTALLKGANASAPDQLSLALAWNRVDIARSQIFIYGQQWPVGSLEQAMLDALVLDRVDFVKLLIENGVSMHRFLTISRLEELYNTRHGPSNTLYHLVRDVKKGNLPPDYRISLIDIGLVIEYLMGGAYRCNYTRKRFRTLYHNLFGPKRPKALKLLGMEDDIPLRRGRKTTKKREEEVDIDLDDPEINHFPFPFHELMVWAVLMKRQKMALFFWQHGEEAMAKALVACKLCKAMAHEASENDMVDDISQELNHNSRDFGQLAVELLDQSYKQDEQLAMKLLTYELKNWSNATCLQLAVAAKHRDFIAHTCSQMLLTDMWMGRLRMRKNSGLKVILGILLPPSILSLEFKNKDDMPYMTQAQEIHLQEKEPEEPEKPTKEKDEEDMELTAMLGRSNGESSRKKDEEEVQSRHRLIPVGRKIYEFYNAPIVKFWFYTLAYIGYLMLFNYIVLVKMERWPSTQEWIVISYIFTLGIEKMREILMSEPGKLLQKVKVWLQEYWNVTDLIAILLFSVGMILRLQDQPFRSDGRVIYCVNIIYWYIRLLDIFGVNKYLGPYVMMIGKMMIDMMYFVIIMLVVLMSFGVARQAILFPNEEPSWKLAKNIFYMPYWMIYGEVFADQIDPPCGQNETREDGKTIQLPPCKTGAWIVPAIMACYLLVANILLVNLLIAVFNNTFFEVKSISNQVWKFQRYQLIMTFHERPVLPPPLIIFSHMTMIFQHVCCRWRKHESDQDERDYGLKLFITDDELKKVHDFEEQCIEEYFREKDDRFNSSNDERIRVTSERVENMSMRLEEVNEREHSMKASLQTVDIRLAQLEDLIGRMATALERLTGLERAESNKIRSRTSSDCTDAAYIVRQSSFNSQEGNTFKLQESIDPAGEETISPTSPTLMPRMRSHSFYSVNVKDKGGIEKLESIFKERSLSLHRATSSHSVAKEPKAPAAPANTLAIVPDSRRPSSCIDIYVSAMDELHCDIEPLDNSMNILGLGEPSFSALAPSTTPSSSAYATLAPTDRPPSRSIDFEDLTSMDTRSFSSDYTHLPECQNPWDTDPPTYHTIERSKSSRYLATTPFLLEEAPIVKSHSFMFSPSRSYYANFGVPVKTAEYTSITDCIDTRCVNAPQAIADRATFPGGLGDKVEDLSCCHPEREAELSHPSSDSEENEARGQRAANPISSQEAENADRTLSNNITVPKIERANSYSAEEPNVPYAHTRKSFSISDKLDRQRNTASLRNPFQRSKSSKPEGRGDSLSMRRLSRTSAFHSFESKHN
Assay type: cell-based
Protocol: Monitoring the TRPM3 Ion Channel Driven Ca^2+ Uptake.
In order to monitor the inhibition of the mouse TRPM3α2 (mTRPM3) ion channel by the compounds of the invention, a cellular system making use of an mTRPM3alpha2 or hTRPM3 overexpressing cell line (flip-in HEK293) was used. The TRPM3 channel was stimulated/opened with Pregnenolone sulfate (PS) (50 μM) which results in Ca^2+ influx.
For mTRPM3, the intracellular Ca^2+ was measured with a Calcium responsive dye, Fluor-4 AM ester (Invitrogen). Cells were cultured until a confluence of 80-90%, washed with Versene (Invitrogen) and detached from the surface by a short incubation with 0.05% Trypsin (Invitrogen). The trypsination process was stopped by the addition of complete cell culture medium (DMEM, glutamax, 10% FCS, NEAA, Pen-Strep). Cells were collected and resuspended in Krebs buffer without Calcium at RT.
Prior the cell seeding (±2000 cells/well into a black, 384 well plate (Greiner)) the diluted compound was added in the assay plate, together with the PS dissolved in Krebs buffer containing Calcium. […] Directly after cell addition the plates were read on an Envision fluorescence reader (Perkin Elmer) by an Excitation of 485 nm and emission at 535 nm.
Channel inhibition was calculated compared to a non-PS stimulated control versus a condition stimulated with PS (50 μM) with vehicle. The ability of the compounds of the invention to inhibit this activity was determined as: Percentage inhibition=[1−((RFU determined for sample with test compound present−RFU determined for sample with positive control inhibitor) divided by (RFU determined in the presence of vehicle−RFU determined for sample with positive control inhibitor))]*100.
The activities of the Example compounds tested are depicted in the table below.

SMILES | IC50
Cc1oc2ccc(OCc3ccccc3C(F)(F)F)cc2c1C(=O)NC1CCN(C)CC1 [Cpd 233, 2-methyl-N-(1-methylpiperidin-4-yl)-5-((2-(trifluoromethyl)benzyl)oxy)benzofuran-3-carboxamide] | 1000 to 20000 nM
Cc1oc2c(F)cc(OCc3ccccc3)cc2c1C(=O)NC1CNCC1(F)F (single isomer, unassigned) [Cpd 306-En 1] | < 1000 nM
Cc1oc2ccc(OCc3ccccc3C(F)(F)F)cc2c1C(=O)NC1CCNC1=O (stereo not drawn) [Cpd 219, 2-methyl-N-(2-oxopyrrolidin-3-yl)-5-((2-(trifluoromethyl)benzyl)oxy)benzofuran-3-carboxamide] | < 1000 nM
Cc1oc2ccc(OC(CO)c3ccccc3F)cc2c1C(=O)N[C@@H](CO)C(N)=O (single isomer, unassigned) [Cpd 335-Dia 1] | < 1000 nM
Cc1oc2ccc(OCc3ccccc3)c(C)c2c1C(=O)NC1CNCC1(F)F (single isomer, unassigned) [Cpd 299-En 2, 5-(benzyloxy)-N-(4,4-difluoropyrrolidin-3-yl)-2,4-dimethylbenzofuran-3-carboxamide] | < 1000 nM
Cc1oc2c(Cl)cc(OCc3ccccc3)cc2c1C(=O)NC1CNCC1(F)F (single isomer, unassigned) [Cpd 304-En 2, 5-(benzyloxy)-7-chloro-N-(4,4-difluoropyrrolidin-3-yl)-2-methylbenzofuran-3-carboxamide] | > 20000 nM
Cc1oc2cc(C#N)c(OCc3ccccc3)cc2c1C(=O)NC1CNCC1(F)F (single isomer, unassigned) [Cpd 301-En 2, 5-(benzyloxy)-6-cyano-N-(4,4-difluoropyrrolidin-3-yl)-2-methylbenzofuran-3-carboxamide] | > 20000 nM
Cc1oc2ccc(OCc3ccccc3F)cc2c1C(=O)NC1(C(N)=O)CCOC1 (single isomer, unassigned) [Cpd 323-En 2, N-(3-carbamoyltetrahydrofuran-3-yl)-5-((2-fluorobenzyl)oxy)-2-methylbenzofuran-3-carboxamide] | < 1000 nM
Cc1oc2ccc(OCc3ccccc3)cc2c1C(=O)NC1CN(C2COC2)C1 [Cpd 148, 5-(benzyloxy)-2-methyl-N-(1-(oxetan-3-yl)azetidin-3-yl)benzofuran-3-carboxamide] | < 1000 nM
Cc1oc2ccc(OCc3ccccc3)cc2c1C(=O)N[C@H]1CCN(S(C)(=O)=O)C1 [Cpd 215, (S)-5-(benzyloxy)-2-methyl-N-(1-(methylsulfonyl)pyrrolidin-3-yl)benzofuran-3-carboxamide] | < 1000 nM
Cc1oc2ccc(OCc3ccccc3)cc2c1C(=O)N1CC[C@@H](N(C)C)C1 [Cpd 118, (R)-(5-(benzyloxy)-2-methylbenzofuran-3-yl)(3-(dimethylamino)pyrrolidin-1-yl)methanone] | > 20000 nM
Cc1oc2ccc(OCc3ccccc3)cc2c1C(=O)NC1CC2(CCNCC2)C1 [Cpd 180, 5-(benzyloxy)-2-methyl-N-(7-azaspiro[3.5]nonan-2-yl)benzofuran-3-carboxamide] | < 1000 nM
CCN1CCC[C@H]1CNC(=O)c1c(C)oc2ccc(OCc3ccccc3)cc12 [Cpd 152, (S)-5-(benzyloxy)-N-((l-ethylpyrrolidin-2-yl)methyl)-2-methylbenzofuran-3-carboxamide] | 1000 to 20000 nM
Cc1oc2ccc(OCc3ccccc3F)cc2c1C(=O)NC(CO)C(N)=O (single isomer, unassigned) [Cpd 314-En 2] | < 1000 nM
Cc1oc2ccc(OCc3ccccc3)cc2c1C(=O)N[C@@H]1CN[C@@H](C(=O)O)C1 [Cpd 163, (2R,4S)-4-(5-(benzyloxy)-2-methylbenzofuran-3-carboxamido)pyrrolidine-2-carboxylic acid] | 1000 to 20000 nM
Cc1oc2ccc(OCc3ccccc3F)cc2c1C(=O)NC1(C(N)=O)COC1 [Cpd 309, N-(3-carbamoyloxetan-3-yl)-5-((2-fluorobenzyl)oxy)-2-methylbenzofuran-3-carboxamide] | < 1000 nM
Cc1oc2ccc(OCc3ccccc3F)cc2c1C(=O)N[C@@H]1COC[C@H]1O (relative stereo) [Cpd 330-En 2] | < 1000 nM
Cc1oc2ccc(OCc3ccc(F)cc3Cl)cc2c1C(=O)O [Cpd 022, 5-((2-chloro-4-fluorobenzyl)oxy)-2-methylbenzofuran-3-carboxylic acid] | 1000 to 20000 nM
Cc1oc2ccc(OCc3ccc(CN)cc3)cc2c1C(=O)NC1CCN(C)CC1 [Cpd 190, 5-((4-(aminomethyl)benzyl)oxy)-2-methyl-N-(1-methylpiperidin-4-yl)benzofuran-3-carboxamide] | > 20000 nM
Cc1oc2ccc(OC(C)c3ccccc3)cc2c1C(=O)N[C@@H](CO)C(N)=O (single isomer, unassigned) [Cpd 336-Dia 1] | < 1000 nM
Cc1oc2ccc(OCc3ccccc3)cc2c1C(=O)NC1CCN(C)CC1 [Cpd 117, 5-(benzyloxy)-2-methyl-N-(1-methylpiperidin-4-yl)benzofuran-3-carboxamide] | < 1000 nM
Cc1oc2ccc(OCc3ccccc3F)cc2c1C(=O)NC1(C(N)=O)CCOC1 (single isomer, unassigned) [Cpd 323-En 1, N-(3-carbamoyltetrahydrofuran-3-yl)-5-((2-fluorobenzyl)oxy)-2-methylbenzofuran-3-carboxamide] | < 1000 nM
Cc1noc(C)c1CCNC(=O)c1c(C)oc2ccc(OCc3ccccc3)cc12 [Cpd 178, 5-(benzyloxy)-N-(2-(3,5-dimethylisoxazol-4-yl)ethyl)-2-methylbenzofuran-3-carboxamide] | 1000 to 20000 nM
Cc1oc2ccc(OC(CN(C)C)c3ccccc3)cc2c1C(=O)N[C@@H](CO)C(N)=O (single isomer, unassigned) [Cpd 347-En 1] | 1000 to 20000 nM
Cc1oc2ccc(OCc3cccc(OC(F)(F)F)c3)cc2c1C(=O)O [Cpd 028, 2-methyl-5-((3-(trifluoromethoxy)benzyl)oxy)benzofuran-3-carboxylic acid] | > 20000 nM
Cc1oc2ccc(OCc3ccccc3Cl)cc2c1C(=O)N[C@@H](CO)C(N)=O [Cpd 338, (S)—N-(1-Amino-3-hydroxy-1-oxopropan-2-yl)-5-((2-chlorobenzyl)oxy)-2-methylbenzofuran-3-carboxamide] | < 1000 nM
Cc1oc2ccc(OCc3ccccc3CO)cc2c1C(=O)NC1CCN(C)CC1 [Cpd 192, 5-((2-(hydroxymethyl)benzyl)oxy)-2-methyl-N-(1-methylpiperidin-4-yl)benzofuran-3-carboxamide] | 1000 to 20000 nM

Continued, values first:

IC50 | SMILES
< 1000 nM | Cc1oc2ccc(OCc3ccccc3)cc2c1C(=O)NC1CCCC1 [Cpd 046, 5-(benzyloxy)-N-cyclopentyl-2-methylbenzofuran-3-carboxamide]
< 1000 nM | Cc1oc2ccc(OCc3ccccc3)cc2c1C(=O)NC[C@@H]1CCCO1 [Cpd 090, (S)-5-(benzyloxy)-2-methyl-N-((tetrahydrofuran-2-yl)methyl)benzofuran-3-carboxamide]
< 1000 nM | Cc1oc2ccc(OCc3ccccc3)cc2c1C(=O)NC1COC1 [Cpd 043, 5-(benzyloxy)-2-methyl-N-(oxetan-3-yl)benzofuran-3-carboxamide]
< 1000 nM | Cc1oc2ccc(OCc3ccccc3)cc2c1C(=O)NC1CC(O)C1 (stereo not drawn) [Cpd 052, 5-(benzyloxy)-N-(3-hydroxycyclobutyl)-2-methylbenzofuran-3-carboxamide]
< 1000 nM | Cc1oc2ccc(OCc3ccccc3)cc2c1C(=O)N[C@H]1CCN(C)C1 [Cpd 079, (S)-5-(benzyloxy)-2-methyl-N-(1-methylpyrrolidin-3-yl)benzofuran-3-carboxamide]
< 1000 nM | Cc1oc2ccc(OCc3ccccc3)cc2c1C(=O)O [Cpd 002, 5-(benzyloxy)-2-methylbenzofuran-3-carboxylic acid]
< 1000 nM | Cc1oc2ccc(OCc3ccccc3)cc2c1C(=O)N[C@H]1C[C@H](O)C1 [Cpd 053, 5-(benzyloxy)-N-(trans-3-hydroxycyclobutyl)-2-methylbenzofuran-3-carboxamide]
< 1000 nM | Cc1oc2ccc(OCc3ccccc3)cc2c1C(=O)Nc1ccncc1 [Cpd 060, 5-(benzyloxy)-2-methyl-N-(pyridin-4-yl)benzofuran-3-carboxamide]
< 1000 nM | Cc1oc2ccc(OCc3ccccc3)cc2c1C(=O)NCC(O)CO (stereo not drawn) [Cpd 057, 5-(benzyloxy)-N-(2,3-dihydroxypropyl)-2-methylbenzofuran-3-carboxamide]
1000 to 20000 nM | Cc1oc2ccc(OCc3ccccc3)cc2c1C(=O)NCCN(C)C [Cpd 055, 5-(benzyloxy)-N-(2-(dimethylamino)ethyl)-2-methylbenzofuran-3-carboxamide]
1000 to 20000 nM | Cc1oc2ccc(OCc3ccccc3)cc2c1C(=O)NC[C@H]1CCCO1 [Cpd 089, (R)-5-(benzyloxy)-2-methyl-N-((tetrahydrofuran-2-yl)methyl)benzofuran-3-carboxamide]
< 1000 nM | CCN1CCC(NC(=O)c2c(C)oc3ccc(OCc4ccccc4)cc23)C1=O (stereo not drawn) [Cpd 147, 5-(benzyloxy)-N-(1-ethyl-2-oxopyrrolidin-3-yl)-2-methylbenzofuran-3-carboxamide]
